Target: Beta-secretase 1 (Homo sapiens, UniProt P56817)
Assay: Enzyme Inhibition Measurements
Settings: pH 4.5; 37 °C
Method: Enzyme activities were assayed by monitoring the hydrolysis of substrate in the presence or absence of inhibitor compounds. The hydrolysis was recorded as the increase in fluorescence intensity over a 10 min time period. […] The Ki was calculated by using Ki = IC50/ (1 + [S]/Km), and a Km value determined according to Michaelis-Menten.

Chain of Beta-secretase 1 (P56817 whole entry): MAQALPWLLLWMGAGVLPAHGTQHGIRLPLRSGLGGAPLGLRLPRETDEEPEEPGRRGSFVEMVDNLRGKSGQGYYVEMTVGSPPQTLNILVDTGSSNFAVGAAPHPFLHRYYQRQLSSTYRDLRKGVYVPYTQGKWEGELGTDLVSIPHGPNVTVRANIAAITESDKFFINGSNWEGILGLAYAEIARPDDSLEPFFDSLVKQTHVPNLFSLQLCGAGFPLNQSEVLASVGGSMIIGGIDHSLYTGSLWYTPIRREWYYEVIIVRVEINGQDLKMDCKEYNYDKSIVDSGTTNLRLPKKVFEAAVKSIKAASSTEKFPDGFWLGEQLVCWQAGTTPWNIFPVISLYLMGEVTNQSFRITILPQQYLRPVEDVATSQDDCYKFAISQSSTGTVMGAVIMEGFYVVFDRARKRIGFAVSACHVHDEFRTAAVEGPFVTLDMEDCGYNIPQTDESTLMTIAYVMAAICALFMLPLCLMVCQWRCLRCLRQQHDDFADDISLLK

Ki: 0.036 µM
Compound: CC(C)C[C@H](NC(=O)[C@H](CC(N)=O)NC(=O)[C@@H](N)C(C)C)[C@@H](O)C[C@@H](C)C(=O)N[C@@H](C)C(=O)N[C@@H](CCC(=O)O)C(=O)N[C@@H](Cc1ccccc1)C(=O)O [Val-Asn-LeuAla-Ala-Glu-Phe]

Source: BindingDB's records for doi:10.1021/jm0101803 (University of Illinois At Chicago, 2001)
